From the NIST ThermoML archive (doi:10.1016/j.fluid.2017.03.011)

Assays:
[1] = an = ratio of the nth substance listed; conditions: 101 kPa, Liquid, a2 = 3; for electrical conductivity: Alternating current cell with electrodes; for speed of sound: Sing-around technique in a fixed-path interferometer; for mass density: Vibrating tube method; for viscosity: Falling or rolling sphere viscometry
[2] = refractive index (Na D-line) (dimensionless); an = ratio of the nth substance listed; conditions: 101 kPa, Liquid, Standard Abbe refractometry, a2 = 3

CCC[N+](CCC)(CCC)Cc1ccccc1.[Cl-] [benzyltripropylammonium chloride] + CC(O)C(=O)O
Conditions | electrical conductivity, [1] [S/m] | mass density, [1] [kg/m3] | refractive index, [2] | speed of sound, [1] [m/s] | viscosity, [1] [mPa·s]
293.15 K | 0.0011 | 1120.61 | 1.4944 | 1658.2 | –
298.15 K | 0.0018 | 1117.05 | 1.4926 | 1640.8 | –
303.15 K | 0.003 | 1113.49 | 1.4908 | 1624.7 | 2276.7
308.15 K | 0.0047 | 1109.92 | 1.4892 | 1607.9 | 1288.3
313.15 K | 0.0071 | 1106.36 | 1.4876 | 1592.5 | 780.5
318.15 K | 0.0103 | 1102.71 | 1.4858 | 1577.6 | 489.2
323.15 K | 0.0146 | 1099.19 | 1.4844 | 1563.7 | 319
328.15 K | 0.0201 | 1095.66 | 1.4824 | 1550.1 | 215.6
333.15 K | 0.0267 | 1092.1 | 1.4811 | 1537.3 | 150.6
338.15 K | 0.035 | 1088.54 | 1.4791 | 1525.1 | 108.5
343.15 K | 0.0443 | 1084.99 | 1.4778 | 1513.6 | 81.3

CCC[N+](CCC)(CCC)Cc1ccccc1.[Cl-] [benzyltripropylammonium chloride] + OCC(O)CO
Conditions | electrical conductivity, [1] [S/m] | mass density, [1] [kg/m3] | refractive index, [2] | speed of sound, [1] [m/s] | viscosity, [1] [mPa·s]
293.15 K | 0.0058 | 1133.02 | 1.5051 | 1898.3 | –
298.15 K | 0.0085 | 1129.97 | 1.5036 | 1868.9 | –
303.15 K | 0.0117 | 1126.92 | 1.5026 | 1844.9 | 1890.5
308.15 K | 0.016 | 1123.81 | 1.5011 | 1824.4 | 1179.6
313.15 K | 0.022 | 1120.62 | 1.4999 | 1806.5 | 779.8
318.15 K | 0.0289 | 1117.51 | 1.4982 | 1790.1 | 519.3
323.15 K | 0.0374 | 1114.45 | 1.4966 | 1774.7 | 359.2
328.15 K | 0.048 | 1111.39 | 1.4953 | 1760.1 | 251.6
333.15 K | 0.0596 | 1108.32 | 1.4936 | 1745.9 | 180.1
338.15 K | 0.0741 | 1105.24 | 1.4922 | 1732.2 | 131.4
343.15 K | 0.0894 | 1102.17 | 1.4908 | 1719.2 | 97

CCC[N+](CCC)(CCC)Cc1ccccc1.[Cl-] [benzyltripropylammonium chloride] + OCCO
Conditions | electrical conductivity, [1] [S/m] | mass density, [1] [kg/m3] | refractive index, [2] | speed of sound, [1] [m/s] | viscosity, [1] [mPa·s]
293.15 K | 0.0734 | 1063.63 | 1.4981 | 1762.4 | 327.9
298.15 K | 0.0883 | 1060.58 | 1.4965 | 1746.5 | 229.2
303.15 K | 0.105 | 1057.52 | 1.4952 | 1731 | 164.6
308.15 K | 0.125 | 1054.44 | 1.4939 | 1715.9 | 121
313.15 K | 0.146 | 1051.35 | 1.4924 | 1701.1 | 90.8
318.15 K | 0.17 | 1048.27 | 1.4911 | 1686.4 | 70.6
323.15 K | 0.2 | 1045.19 | 1.4895 | 1671.9 | 54.4
328.15 K | 0.228 | 1042.11 | 1.4879 | 1657.5 | 42.1
333.15 K | 0.26 | 1039.03 | 1.4864 | 1643.3 | 33.5
338.15 K | 0.292 | 1035.95 | 1.4849 | 1629.2 | 27
343.15 K | 0.328 | 1032.88 | 1.4831 | 1615.7 | 22.2

CCC[N+](CCC)(CCC)Cc1ccccc1.[Cl-] [benzyltripropylammonium chloride] + Oc1ccccc1
Conditions | electrical conductivity, [1] [S/m] | mass density, [1] [kg/m3] | refractive index, [2] | speed of sound, [1] [m/s] | viscosity, [1] [mPa·s]
293.15 K | 0.0213 | 1060.26 | 1.5486 | 1699.7 | 638.4
298.15 K | 0.0295 | 1056.98 | 1.5471 | 1679.8 | 381.5
303.15 K | 0.0397 | 1053.73 | 1.5452 | 1661.7 | 237.1
308.15 K | 0.0523 | 1050.47 | 1.5436 | 1644.5 | 156.7
313.15 K | 0.0669 | 1047.19 | 1.542 | 1628 | 107
318.15 K | 0.0838 | 1043.91 | 1.5403 | 1611.9 | 76.8
323.15 K | 0.0999 | 1040.64 | 1.5386 | 1596.2 | 57.6
328.15 K | 0.118 | 1037.37 | 1.5369 | 1580.7 | 43.1
333.15 K | 0.138 | 1034.12 | 1.5352 | 1565.5 | 32.6
338.15 K | 0.162 | 1030.87 | 1.5334 | 1550.5 | 25.8
343.15 K | 0.183 | 1027.64 | 1.5317 | 1536.1 | 20.4
